US20060211684A1, “Use of alpha-2 adrenergic receptor agonists” (Perlegen Sciences, Inc., priority 2005, published 2006)
Where two headings read alike, the source gives them in different places.

Legend:
[1] = tested on: transverse aortic constricted α2C−/−mice
Method: This example tests whether treatment of α2C−/−knockout transgenic mice with the partial α2A agonist, clonidine, improves cardiac function and reduces ventricular hypertrophy after left ventricular pressure overload. In other words, the example tests whether clonidine-mediated activation of α2A-receptors compensates for the loss of functional α2C. The mice used in this experiment are described in more detail in Brede et al., Circulation 106, 2491-2496 (2002). […] Mice were treated with 200 μg/kg/day clonidine or vehicle for four weeks. Three mice were treated with clonidine and three with vehicle in the initial experiment.

[2] = cited from earlier work
[3] = after ingestion; cited from earlier work
[4] = cited from earlier work; remark: listed apart in the source
[5] = initial experiment, 200 μg/kg/day for four weeks, three mice clonidine, three vehicle, FIG. 1
[6] = second experiment, 200 μg/kg/day for 4 weeks via osmotic minipumps, n=5 clonidine, n=6 vehicle

Clc1cccc(Cl)c1NC1=NCCN1 [clonidine, N-(2,6-dichlorophenyl)-4,5-dihydro-1 H-imidazol-2-amine]
hypertrophy ([1]; FIGS. 1 and 2): prevents and reduces
left ventricular systolic pressures ([1]; FIGS. 1 and 2): slightly reduced
ventricular contractility ([1]; FIGS. 1 and 2): maintained
contractility of the heart [1, 5]: did not effect
left ventricular systolic pressure [1, 5]: reduced
ventricular hypertrophy [1, 5]: reduced
contractility of the heart [1, 6]: did not effect
left ventricular systolic pressure [1, 6]: reduced
ventricular hypertrophy [1, 6]: reduced
time to peak plasma concentrations ([2]; after a single oral dose): 3 to 5 h
CNS penetration ([2]; because of lipid solubility): excellent
time to steady state levels ([2]; dermal application): several days
absorption from the gastrointestinal tract ([2]; in vivo): rapidly absorbed
elimination ([2]; in vivo): excreted unchanged in the urine and metabolized by the liver
onset of antihypertensive effects [3]: 30 to 60 min
side effects ([4]; therapeutic doses typically used (0.2-0.9 mg/day)): dryness of the mouth, dizziness, sedation, and constipation
toxic effects ([4]; toxic doses, children and adults): serious cardiopulmonary instability and central nervous system depression
